# Assays:
# [1] = Solubility, dissolution time (specification); type: physicochemical
# [2] = Storage stability of the lyophilized preparation at +4° C., HPLC comparison of fresh material and material stored nine months; type: physicochemical; conditions: lyophilized form
# Text: FIGS. 4A and 4B disclose HPLC chromatograms of hPTH-1-37. […] FIG. 4B is a chromatogram of hPTH-1-37 stored for nine months. […] Further, FIG. 5 discloses a comparison between the HPLC chromatograms of freshly prepared hPTH-1-37 (A) and a commercially obtainable preparation.
# [3] = Stability of the active ingredient in hydrophilic ointment (cream) formulation; type: physicochemical; conditions: hydrophilic ointment DAB base; except for methionine-oxidized metabolites
# Text: In one embodiment of the invention, the hemoparatide (hPTH-1-37) or its derivatives are used for preparing a medicament in different galenic application forms, especially as a lyophilizate. In one embodiment of this medicament, a hydrophilic ointment, especially according to the German Pharmacopoeia, is used as a galenic application base. […] These oxidized metabolites also occur as natural PTH forms in the blood plasma, but can be avoided by working under a nitrogen atmosphere, and are free from side effects, being naturally occurring endogenous derivatives.
# Hemoparatide was incorporated into this base in concentrations of 0.03% by weight, 0.1% by weight and 0.3% by weight.
# These oxidized metabolites also occur as natural PTH forms in the blood plasma, but can be avoided by working under a nitrogen atmosphere, and are free from side effects, being naturally occurring endogenous derivatives.
# [4] = Phase I trial, tolerability of subcutaneous injection in aqueous solution; type: in vivo; conditions: humans
SMILES,"Solubility, dissolution time [1]",Methionine-oxidized metabolites after storage (stability) [2],Stability of active ingredient in formulation [3],Tolerability [4]
CC[C@H](C)[C@H](NC(=O)[C@H](CCC(=O)O)NC(=O)[C@H](CO)NC(=O)[C@@H](NC(=O)[C@@H](N)CO)C(C)C)C(=O)N[C@@H](CCC(N)=O)C(=O)N[C@@H](CC(C)C)C(=O)N[C@@H](CCSC)C(=O)N[C@@H](Cc1c[nH]cn1)C(=O)N[C@@H](CC(N)=O)C(=O)N[C@@H](CC(C)C)C(=O)NCC(=O)N[C@@H](CCCCN)C(=O)N[C@@H](Cc1c[nH]cn1)C(=O)N[C@@H](CC(C)C)C(=O)N[C@@H](CC(N)=O)C(=O)N[C@@H](CO)C(=O)N[C@@H](CCSC)C(=O)N[C@@H](CCC(=O)O)C(=O)N[C@@H](CCCNC(=N)N)C(=O)N[C@H](C(=O)N[C@@H](CCC(=O)O)C(=O)N[C@@H](Cc1c[nH]c2ccccc12)C(=O)N[C@@H](CC(C)C)C(=O)N[C@@H](CCCNC(=N)N)C(=O)N[C@@H](CCCCN)C(=O)N[C@@H](CCCCN)C(=O)N[C@@H](CC(C)C)C(=O)N[C@@H](CCC(N)=O)C(=O)N[C@@H](CC(=O)O)C(=O)N[C@H](C(=O)N[C@@H](Cc1c[nH]cn1)C(=O)N[C@@H](CC(N)=O)C(=O)N[C@@H](Cc1ccccc1)C(=O)N[C@H](C(=O)N[C@@H](C)C(=O)N[C@@H](CC(C)C)C(=O)O)C(C)C)C(C)C)C(C)C [hPTH-1-37],≦2 min,Only very small amounts of methionine-oxidized metabolites can be detected,very stable,
CC[C@H](C)[C@H](NC(=O)[C@H](CCC(=O)O)NC(=O)[C@H](CO)NC(=O)[C@@H](NC(=O)[C@@H](N)CO)C(C)C)C(=O)N[C@@H](CCC(N)=O)C(=O)N[C@@H](CC(C)C)C(=O)N[C@@H](CCSC)C(=O)N[C@@H](Cc1c[nH]cn1)C(=O)N[C@@H](CC(N)=O)C(=O)N[C@@H](CC(C)C)C(=O)NCC(=O)N[C@@H](CCCCN)C(=O)N[C@@H](Cc1c[nH]cn1)C(=O)N[C@@H](CC(C)C)C(=O)N[C@@H](CC(N)=O)C(=O)N[C@@H](CO)C(=O)N[C@@H](CCSC)C(=O)N[C@@H](CCC(=O)O)C(=O)N[C@@H](CCCNC(=N)N)C(=O)N[C@H](C(=O)N[C@@H](CCC(=O)O)C(=O)N[C@@H](Cc1c[nH]c2ccccc12)C(=O)N[C@@H](CC(C)C)C(=O)N[C@@H](CCCNC(=N)N)C(=O)N[C@@H](CCCCN)C(=O)N[C@@H](CCCCN)C(=O)N[C@@H](CC(C)C)C(=O)N[C@@H](CCC(N)=O)C(=O)N[C@@H](CC(=O)O)C(=O)N[C@H](C(=O)N[C@@H](Cc1c[nH]cn1)C(=O)N[C@@H](CC(N)=O)C(=O)N[C@@H](Cc1ccccc1)C(=O)N[C@H](C(=O)N[C@@H](C)C(=O)N[C@@H](CC(C)C)C(=O)O)C(C)C)C(C)C)C(C)C [highly pure hemoparatide],≦2 min,only a small amount of methionine-oxidized metabolites appears,,high tolerability

# Source: US20110263509A1, “PREPARATION AND USE OF HIGH-PURITY HEMOPARATIDE (HPTH-1-37) FOR THE TREATMENT OF INFLAMMATORY SCALING DISEASES OF THE SKIN” (Haemopep Pharma GmbH, priority 2008, published 2011)
